From US20170037471A1, “METHODS FOR DIAGNOSING & TREATING COPPER-DEPENDENT DISEASES” (Duke University, priority 2013, published 2017)
Residues, ends and D or L forms follow the SMILES beside them. *: point of attachment. Cbz = O=C(OCc1ccccc1)*; CHN2 = [N-]=[N+]=C*; tBu = CC(C)(C)*

Experiments:
[1] = system: human Ctr1 protein containing the proline to alanine substitution at position 25 (Ctr1^P25A); assay: Ctr1^P25A cleavage protection in stably transfected Ctr1-/- mouse embryonic fibroblasts, anti-Ctr1 immunoblot; type: cell-based; conditions: Ctr1-/- MEFs expressing human Ctr1^P25A, 10 μM, 16 hours, immunoblot (FIG. 8)
Experimental: (§1) Mouse embryonic fibroblasts from Ctr1^−/− embryos were stably transfected with plasmids expressing either the wild type human Ctr1 protein or the human Ctr1 protein containing the proline to alanine substitution at position 25 (Ctr1^P25A). Cells were cultured in medium supplemented with 20% fetal bovine serum and treated with DMSO or 10 μM cysteine protease Cathepsin L, Z-FY(t-Bu)-DMK and harvested 16 hours later. Total proteins were isolated from the cells by homogenizing cells in ice cold PBS supplemented with 1% Triton-X, 0.1% SDS, and 1 mM EDTA. Cell debris was removed by centrifugation and the total amounts of soluble proteins were quantified in each sample. Equal amounts of proteins were separated on tris/glycine gradient gel, transferred to nitrocellulose membrane and blocked with 5% non-fat milk in Tris buffered saline supplemented with 0.05% Tween (TBST) for 1 h. Membranes were incubated with anti-Ctr1 antibody (1:1000) followed by anti-rabbit-HRP coupled antibody (1:5000) and bands detected by enhanced chemiluminescent substrate. Anti-Actin antibody was used as loading control.

Ctr1 cleavage = Ctr1 cleavage in wild type and Cathepsin L-/- mouse embryonic fibroblasts, anti-Ctr1 immunoblot; type: cell-based; conditions: 10 μM, 16 hours, immunoblot (FIG. 7)
Experimental: as §1, with “from” for “from Ctr1^−/− embryos were stably transfected with plasmids expressing either the”, “and CatL^−/− littermates” for “human Ctr1 protein or the human Ctr1 protein containing the proline to alanine substitution at position 25 (Ctr1^P25A). Cells”, “10%” for “20%”, “μM of the cell permeable” for “μM”, “inhibitor E64d” for “Cathepsin L, Z-FY(t-Bu)-DMK”, “Anti-Tubulin” for “Anti-Actin”
Lanes 1 and 2 are duplicate samples from untreated wild type cells and lanes 5 and 6 are duplicate samples from untreated Cathepsin L knock out cells.

Row | Structure (SMILES) | reduction in full length form of Ctr1^P25A [1] | levels of cleaved Ctr1 (Ctr1 cleavage; Cathepsin L knock out MEFs) | levels of cleaved Ctr1 (Ctr1 cleavage; wild type MEFs)
1 | CC(C)(C)Oc1ccc(CC(NC(=O)C(Cc2ccccc2)NC(=O)OCc2ccccc2)C(=O)C=[N+]=[N-])cc1 (stereo not drawn) [Z-FY(t-Bu)-DMK, benzyl (1-((1-(4-(tert-butoxy)phenyl)-4-diazo-3-oxobutan-2-yl)amino)-1-oxo-3-phenylpropan-2-yl)carbamate] (Cbz-Phe-Tyr(tBu)-CHN2; configuration not given here) | can be alleviated by treatment with Cathepsin L inhibitors | – | –
2 | CCOC(=O)[C@H]1O[C@@H]1C(=O)N[C@@H](CC(C)C)C(=O)NCCC(C)C (relative stereo) [E64d, (2S,3S)-trans-Epoxysuccinyl-L-leucylamido-3-methylbutane ethyl ester] | – | not Cathepsin L knock out cells | dramatic reduction in the levels of cleaved Ctr1
